Results published in patent US20260078089A1, “BIOACTIVE PHYTOCHEMICALS IN ZIZYPHUS AND GUARANA” (Phytoquest Limited, priority 2018, published 2026).

Experiments:
[1] = test system: male ddy mouse; assay: Maltose loading test, blood glucose in mice; assay type: in vivo; settings: oral maltose 2.5 g/kg, test sample 500 mg/kg body weight, mean n = 5
Description: (§1) The animal experimental protocols in this study were approved by the Animal Experiments Committee of the University of Toyama (S-2010 UH-2). Male ddy mice (29-33 g) after an overnight fast were used for acute disaccharide loading tests. Maltose (2.5 g/kg body weight) or Sucrose (2.5 g/kg body weight) as well as the test samples were dissolved in 0.9% NaCl solution and administered to mice via a stomach tube. A control group was loaded with saline only.
(§2) Blood samples for glucose measurements were obtained from the tail vein at 0, 15, 30, 60, and 120 min after disaccharide-loading. The blood glucose levels were measured by a portable kit, Antsence II™ (Sankyo Co. Ltd. Tokyo, Japan). The Zizyphus extract HS0810/142/41 as well as the purified compounds were tested in this way.

[2] = target: T1, N-acetyl-β-D-hexosaminidase (Aspergillus oryzae, UniProt Q8J2T0); assay: Glycosidase assay, p-nitrophenyl substrate; assay type: biochemical; settings: Aspergillus oryzae enzyme; screened at 0.14 mg mL−1 (footnote: 0.4 mM)
T1 construct: purchased Sigma Aldrich Chemicals Limited
Description: (§3) Glycosidase assays were conducted as described by Watson et al. (Phytochemistry 1997, 46, 255) using p-nitrophenyl-substrates (except sialidase which used methylumbeliferyl-N-acetyineuraminic acid as substrate). Assays were carried out in microtitre plates. Enzymes were assayed in 0.1 M citric acid/0.2 M di-sodium hydrogen phosphate (McIlvaine) buffers at the optimum pH for the enzyme. All assays were carried out at 20° C. All enzymes and substrates were purchased from Sigma Aldrich Chemicals Limited. The incubation mixture consisted of 10 μl of enzyme solution, 10 μl of the iminosugars solution and 50 μl of the appropriate 5 mM p-nitrophenyl substrate made up in McIlvaine buffer at the optimum pH for the enzyme. The reactions were stopped with 0.4 M glycine (pH 10.4) during the exponential phase of the reaction. Absorbances were read at 405 nm. Water was substituted for the alkaloids in the blanks. Reactions were carried out in triplicate.
(§4) Enzyme inhibitor solutions—Compounds were dissolved in distilled water at a concentration of 1 mg mL^−1 and then screened at a concentration of 0.14 mg mL^−1 after dilution of the 1 mg mL^−1 in the assay volumes of substrates.

[3] = target: T2, α-D-galactosidase (Coffea arabica, UniProt Q42656); assay: Glycosidase assay, p-nitrophenyl substrate; assay type: biochemical; settings: Green coffee bean enzyme; screened at 0.14 mg mL−1 (footnote: 0.4 mM)
T2 construct: purchased Sigma Aldrich Chemicals Limited
Description: as §3, §4

[4] = target: T3, α-D-glucosidase (Oryza sativa subsp. japonica, UniProt Q653V7); assay: Glycosidase assay, p-nitrophenyl substrate; assay type: biochemical; settings: Rice enzyme; screened at 0.14 mg mL−1 (footnote: 0.4 mM)
T3 construct: purchased Sigma Aldrich Chemicals Limited
Description: as §3, §4

[5] = target: T4, α-D-glucosidase (Saccharomyces cerevisiae, UniProt P53341); assay: Glycosidase assay, p-nitrophenyl substrate; assay type: biochemical; settings: Saccharomyces cerevisiae enzyme; screened at 0.14 mg mL−1 (footnote: 0.4 mM); 20° C
T4 construct: purchased Sigma Aldrich Chemicals Limited
Description: as §3, §4

[6] = target: T5, α-D-mannosidase (Canavalia ensiformis, UniProt C0HJB3); assay: Glycosidase assay, p-nitrophenyl substrate; assay type: biochemical; settings: Jack bean enzyme; screened at 0.14 mg mL−1 (footnote: 0.4 mM)
T5 construct: purchased Sigma Aldrich Chemicals Limited
T5 sequence (C0HJB3 1-981): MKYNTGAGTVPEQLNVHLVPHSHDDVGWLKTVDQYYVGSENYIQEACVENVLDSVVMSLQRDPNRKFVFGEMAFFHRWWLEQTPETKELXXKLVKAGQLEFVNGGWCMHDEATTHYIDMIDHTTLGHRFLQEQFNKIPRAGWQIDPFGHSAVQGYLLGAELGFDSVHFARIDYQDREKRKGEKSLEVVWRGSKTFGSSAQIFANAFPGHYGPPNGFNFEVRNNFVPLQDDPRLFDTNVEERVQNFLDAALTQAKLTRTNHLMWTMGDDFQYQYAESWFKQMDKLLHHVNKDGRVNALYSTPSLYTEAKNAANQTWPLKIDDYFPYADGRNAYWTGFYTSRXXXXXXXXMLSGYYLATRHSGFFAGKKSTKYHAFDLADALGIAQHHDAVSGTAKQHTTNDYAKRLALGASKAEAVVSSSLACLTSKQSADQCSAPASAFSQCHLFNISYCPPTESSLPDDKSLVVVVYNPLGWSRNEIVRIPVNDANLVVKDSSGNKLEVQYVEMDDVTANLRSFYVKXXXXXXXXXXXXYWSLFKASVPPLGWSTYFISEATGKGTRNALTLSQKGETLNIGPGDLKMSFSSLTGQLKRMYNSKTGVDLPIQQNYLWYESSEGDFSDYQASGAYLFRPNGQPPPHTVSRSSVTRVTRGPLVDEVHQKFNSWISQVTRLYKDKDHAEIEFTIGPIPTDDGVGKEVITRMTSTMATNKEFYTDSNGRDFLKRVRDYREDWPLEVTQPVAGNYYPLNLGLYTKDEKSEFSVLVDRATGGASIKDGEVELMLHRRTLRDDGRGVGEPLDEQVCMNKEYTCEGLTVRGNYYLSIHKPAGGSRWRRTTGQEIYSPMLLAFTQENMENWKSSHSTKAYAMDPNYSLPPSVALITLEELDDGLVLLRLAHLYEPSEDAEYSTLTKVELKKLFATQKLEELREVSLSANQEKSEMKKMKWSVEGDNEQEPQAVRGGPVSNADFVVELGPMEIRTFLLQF
Description: as §3, §4

[7] = target: T6, α-L-fucosidase (Bos taurus, UniProt Q2KIM0); assay: Glycosidase assay, p-nitrophenyl substrate; assay type: biochemical; settings: Bovine kidney enzyme; screened at 0.14 mg mL−1 (footnote: 0.4 mM)
T6 construct: purchased Sigma Aldrich Chemicals Limited
T6 sequence (Q2KIM0 23-468): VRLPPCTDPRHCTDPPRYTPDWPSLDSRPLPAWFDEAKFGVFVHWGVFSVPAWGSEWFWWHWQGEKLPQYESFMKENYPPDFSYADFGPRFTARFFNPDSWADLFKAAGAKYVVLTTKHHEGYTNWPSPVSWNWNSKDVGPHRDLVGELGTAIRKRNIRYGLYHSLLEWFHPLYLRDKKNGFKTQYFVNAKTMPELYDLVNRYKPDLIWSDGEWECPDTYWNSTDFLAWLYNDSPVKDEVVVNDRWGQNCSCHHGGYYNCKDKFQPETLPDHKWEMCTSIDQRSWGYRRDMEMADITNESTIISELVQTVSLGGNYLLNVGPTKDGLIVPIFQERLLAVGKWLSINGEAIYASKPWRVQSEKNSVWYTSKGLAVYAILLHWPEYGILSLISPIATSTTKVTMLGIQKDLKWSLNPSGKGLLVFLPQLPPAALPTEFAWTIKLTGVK
Description: as §3, §4

[8] = test system: male ddy mouse; assay: Sucrose loading test, blood glucose in mice; assay type: in vivo; settings: oral sucrose 2.5 g/kg, test sample 500 mg/kg body weight, mean n = 5
Description: as §1, §2

[9] = target: T7, Amyloglucosidase (Aspergillus niger, UniProt P69328); assay: Glycosidase assay, p-nitrophenyl substrate; assay type: biochemical; settings: Aspergillus niger enzyme; screened at 0.14 mg mL−1 (footnote: 0.4 mM)
T7 construct: purchased Sigma Aldrich Chemicals Limited
Description: as §3, §4

[10] = test system: N-acetyl-β-D-glucosaminidase; assay: Glycosidase assay, p-nitrophenyl substrate; assay type: biochemical; settings: screened at 0.14 mg mL−1 (footnote: 0.4 mM)
Description: as §3, §4

[11] = test system: Naringinase; assay: Glycosidase assay, p-nitrophenyl substrate; assay type: biochemical; settings: Penicillium decumbens enzyme; screened at 0.14 mg mL−1 (footnote: 0.4 mM)
Description: as §3, §4

[12] = test system: α-D-glucosidase; assay: Glycosidase assay, p-nitrophenyl substrate; assay type: biochemical; settings: Bacillus sterothermphilus enzyme; screened at 0.14 mg mL−1 (footnote: 0.4 mM)
Description: as §3, §4

[13] = test system: β-D-galactosidase; assay: Glycosidase assay, p-nitrophenyl substrate; assay type: biochemical; settings: Bovine liver enzyme; screened at 0.14 mg mL−1 (footnote: 0.4 mM)
Description: as §3, §4

[14] = test system: β-D-glucosidase; assay: Glycosidase assay, p-nitrophenyl substrate; assay type: biochemical; settings: Almond enzyme; screened at 0.14 mg mL−1 (footnote: 0.4 mM)
Description: as §3, §4

[15] = test system: β-D-mannosidase; assay: Glycosidase assay, p-nitrophenyl substrate; assay type: biochemical; settings: Cellullomonas fimi enzyme; screened at 0.14 mg mL−1 (footnote: 0.4 mM)
Description: as §3, §4

[16] = test system: sialidase (NanH from T. forsythia); assay: Sialidase assay with MUNANA substrate; assay type: biochemical, Tannerella forsythia; settings: 1 mM inhibitor, 2.5 nM sialidase, 0.1 mM MUNANA, pH 7.2
Description: (§5) Sialidase assays used 1 mM inhibitor (or water without inhibitor) and 2.5 nM sialidase (including NanH from T. forsythia) incubated in the presence of 0.1 mM methylumbeliferyl-N-acetylneuraminic acid, pH 7.2 in 20 mM sodium phosphate buffer. Reactions were stopped at 30 seconds and 60 seconds via addition of ph 10.5 60 mM sodium carbonate buffer. Release of fluorogenic MU was quantified by measuring fluorescence emission at 450 nm, excitation 350 nm. Percentage sialidase activity was expressed as the change in fluorescence between 30 seconds and 60 seconds compared to that of a reaction without inhibitor. Reactions were carried out in triplicate.
MU release can be used to quantify sialidase activity.
as §5, with “1” for “Sialidase assays used 1”, “forsythia) was” for “forsythia)”, “MUNANA,” for “methylumbeliferyl-N-acetylneuraminic acid,”, “7.2” for “7.2 in”, “Sodium Phosphate” for “sodium phosphate”

[17] = test system: glucosidases; assay: Glycosidase panel, glucosidases overall; assay type: biochemical; settings: panel of glucosidases
Description: Glycosidase assays were conducted on Compounds 1 and 3 and an extract of Zizyphus used in the disaccharide loading mouse studies to determine if glucosidase inhibition might explain the effects on blood glucose. A panel of glycosidases were used to be sure any activity found was a selective inhibition and not just non-specific binding to the enzyme.
as §3, with “triplicate. […]” for “triplicate.”

T1 sequence (Q8J2T0 97-600): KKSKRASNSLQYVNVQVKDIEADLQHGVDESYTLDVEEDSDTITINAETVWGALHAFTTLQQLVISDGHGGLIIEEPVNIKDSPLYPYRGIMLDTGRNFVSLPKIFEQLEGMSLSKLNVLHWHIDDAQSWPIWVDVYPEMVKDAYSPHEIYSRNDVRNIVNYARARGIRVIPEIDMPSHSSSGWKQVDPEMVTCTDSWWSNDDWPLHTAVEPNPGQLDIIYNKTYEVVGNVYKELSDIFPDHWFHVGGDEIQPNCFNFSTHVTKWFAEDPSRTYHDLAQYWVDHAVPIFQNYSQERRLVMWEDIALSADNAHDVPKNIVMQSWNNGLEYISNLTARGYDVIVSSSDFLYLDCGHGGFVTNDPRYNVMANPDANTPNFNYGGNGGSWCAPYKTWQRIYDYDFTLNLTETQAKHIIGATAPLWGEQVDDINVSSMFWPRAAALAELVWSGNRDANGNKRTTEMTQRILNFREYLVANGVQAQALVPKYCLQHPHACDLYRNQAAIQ
T3 sequence (Q653V7 34-885): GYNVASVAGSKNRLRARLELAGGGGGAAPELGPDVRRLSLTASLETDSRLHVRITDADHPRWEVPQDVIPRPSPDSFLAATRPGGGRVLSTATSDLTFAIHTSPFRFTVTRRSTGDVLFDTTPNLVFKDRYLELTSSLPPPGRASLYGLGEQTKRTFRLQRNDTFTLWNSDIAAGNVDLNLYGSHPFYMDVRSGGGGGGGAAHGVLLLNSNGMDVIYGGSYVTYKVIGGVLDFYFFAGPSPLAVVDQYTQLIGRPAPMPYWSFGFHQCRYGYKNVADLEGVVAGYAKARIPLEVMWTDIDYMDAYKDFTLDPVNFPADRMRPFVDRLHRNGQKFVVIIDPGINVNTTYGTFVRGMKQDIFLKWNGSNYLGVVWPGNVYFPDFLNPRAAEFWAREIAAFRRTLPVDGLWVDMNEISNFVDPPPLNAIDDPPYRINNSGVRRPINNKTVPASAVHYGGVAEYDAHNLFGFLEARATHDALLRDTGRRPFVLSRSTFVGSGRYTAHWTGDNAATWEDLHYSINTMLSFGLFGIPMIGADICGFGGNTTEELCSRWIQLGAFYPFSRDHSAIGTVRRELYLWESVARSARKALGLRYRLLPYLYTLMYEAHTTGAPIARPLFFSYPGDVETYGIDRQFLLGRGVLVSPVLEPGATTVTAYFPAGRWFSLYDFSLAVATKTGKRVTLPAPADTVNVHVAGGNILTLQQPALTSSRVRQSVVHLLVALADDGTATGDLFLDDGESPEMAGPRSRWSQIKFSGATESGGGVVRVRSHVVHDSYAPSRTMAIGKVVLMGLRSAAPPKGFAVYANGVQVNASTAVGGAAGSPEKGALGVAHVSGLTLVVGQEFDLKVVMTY
T4 sequence (P53341 whole entry): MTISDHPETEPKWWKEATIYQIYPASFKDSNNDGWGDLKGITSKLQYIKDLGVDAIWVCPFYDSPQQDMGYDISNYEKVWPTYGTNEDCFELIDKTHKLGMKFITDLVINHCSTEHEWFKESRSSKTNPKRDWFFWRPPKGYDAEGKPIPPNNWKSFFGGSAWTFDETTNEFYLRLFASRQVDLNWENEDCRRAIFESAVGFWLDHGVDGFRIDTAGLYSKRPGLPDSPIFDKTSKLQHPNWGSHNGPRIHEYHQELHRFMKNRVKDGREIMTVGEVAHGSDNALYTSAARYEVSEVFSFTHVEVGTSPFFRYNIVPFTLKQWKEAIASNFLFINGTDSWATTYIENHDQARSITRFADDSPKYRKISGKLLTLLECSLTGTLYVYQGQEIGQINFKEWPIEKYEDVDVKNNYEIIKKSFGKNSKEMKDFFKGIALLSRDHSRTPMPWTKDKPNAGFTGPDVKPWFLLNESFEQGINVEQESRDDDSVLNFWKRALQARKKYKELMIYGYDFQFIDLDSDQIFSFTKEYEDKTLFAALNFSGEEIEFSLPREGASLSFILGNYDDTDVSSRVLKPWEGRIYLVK
T2 sequence (Q42656 16-378): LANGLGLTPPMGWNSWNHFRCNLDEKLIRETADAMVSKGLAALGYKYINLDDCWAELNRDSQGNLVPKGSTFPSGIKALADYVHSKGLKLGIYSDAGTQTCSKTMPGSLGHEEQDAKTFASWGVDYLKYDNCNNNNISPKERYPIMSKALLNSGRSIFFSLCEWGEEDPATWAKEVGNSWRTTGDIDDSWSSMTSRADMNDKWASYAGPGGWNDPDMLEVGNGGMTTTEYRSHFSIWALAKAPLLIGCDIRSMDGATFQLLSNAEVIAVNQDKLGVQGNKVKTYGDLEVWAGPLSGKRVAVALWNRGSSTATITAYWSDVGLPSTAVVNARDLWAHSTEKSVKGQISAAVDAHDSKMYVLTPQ
T7 sequence (P69328 25-640): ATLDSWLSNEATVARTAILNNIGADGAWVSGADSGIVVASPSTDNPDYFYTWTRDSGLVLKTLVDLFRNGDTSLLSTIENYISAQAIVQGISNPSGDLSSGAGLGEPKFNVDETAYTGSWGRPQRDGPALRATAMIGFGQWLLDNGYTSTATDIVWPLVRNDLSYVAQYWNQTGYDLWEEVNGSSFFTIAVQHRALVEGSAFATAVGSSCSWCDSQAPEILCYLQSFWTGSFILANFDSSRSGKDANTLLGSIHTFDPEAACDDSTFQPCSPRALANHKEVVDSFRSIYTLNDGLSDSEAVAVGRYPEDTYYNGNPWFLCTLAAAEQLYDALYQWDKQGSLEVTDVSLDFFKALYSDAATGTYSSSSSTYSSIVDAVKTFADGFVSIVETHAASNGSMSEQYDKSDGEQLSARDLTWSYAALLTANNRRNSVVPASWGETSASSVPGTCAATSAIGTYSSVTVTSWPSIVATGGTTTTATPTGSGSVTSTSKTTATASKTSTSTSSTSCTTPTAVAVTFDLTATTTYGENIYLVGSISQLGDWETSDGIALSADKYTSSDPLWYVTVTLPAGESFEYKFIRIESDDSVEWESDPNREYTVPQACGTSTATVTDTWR

Row | Structure (SMILES) | blood glucose ([1]; 0 min after administration) [mg/dL] | blood glucose ([1]; 15 min after administration) [mg/dL] | blood glucose ([1]; 30 min after administration) [mg/dL] | blood glucose ([1]; 60 min after administration) [mg/dL] | blood glucose ([1]; 120 min after administration) [mg/dL] | % inhibition [2] [%] | % inhibition [3] [%] | % inhibition [4] [%] | % inhibition [5] [%] | % inhibition [6] [%] | % inhibition [7] [%] | other results
1 | CN1C[C@@H](CO)C[C@H]1C(=O)O [Compound 1, N-methyl-4S-(hydroxymethyl)-2S-pyrrolidinecarboxylic acid] | 83 | 231 | 187 | 140 | 74 | −6 | <5 | 5 | <5 | 18 | 15 | –
2 | CN1C[C@](O)(CO)C[C@H]1C(=O)O [Compound 3, N-methyl-4-hydroxy-4S-(hydroxymethyl)-2S-pyrrolidinecarboxylic acid] | 83 | 233 | 185 | 130 | 80 | −6 | <5 | 11 | <5 | 6 | – | blood glucose ([8]; 0 min after administration): 109 mg/dL; blood glucose ([8]; 15 min after administration): 183 mg/dL; blood glucose ([8]; 30 min after administration): 143 mg/dL; blood glucose ([8]; 60 min after administration): 106 mg/dL; blood glucose ([8]; 120 min after administration): 80 mg/dL
3 | OC[C@H]1NC[C@H](O)[C@@H](O)[C@@H]1O [DNJ, 1-deoxynojirimycin] | – | – | – | – | – | −5.50 | −3.34 | 99.56 | 35.67 | 26.65 | 5.86 | % inhibition [9]: 31.71%; % inhibition ([10]; Bovine kidney enzyme): −0.83%; % inhibition ([10]; Jack bean enzyme): 2.76%; % inhibition [11]: 20.81%; % inhibition [12]: 99.48%; % inhibition [13]: 0.45%; % inhibition [14]: 63.7%; % inhibition [15]: −19.03%; % inhibition [16]: 2%; glucosidase inhibition (in words) [17]: expected strong inhibition of various glucosidases
